From patent US20260364185A1, “Estrogen Receptor Modulator and Use Thereof” (JIANGSU VCARE PHARMATECH CO., LTD., priority 2023, published 2026) come the findings set out here.

What is called IC50 is the concentration that inhibits the measured activity by half.

Where only a bound is given, the exact number is not on record here.

One experiment deals with MCF7 cells. Kind of experiment: MCF7 cell activity test (CCK8 proliferation inhibition). The following applies: Homo sapiens, MCF7, 144 h, 6 days incubation. Type of experiment: cell-based. On the procedure: Experimental Example 1: MCF7 cell activity test
Cell culture: MCF7 cells (culture conditions: MEM medium+20% FBS+1% essential amino acids++1 mg/100 ml insulin, 37° C., 5% CO2). Plating: The cells subcultured into the logarithmic growth phase were collected and transferred into a centrifuge tube, and centrifuged at 800 rpm for 5 min. The cells were resuspended in complete medium and counted. The cells were diluted and adjusted to a final concentration of 30,000 cells/mL. The cells were then seeded into a 96-well plate with 100 μL per well and incubated in an incubator overnight. Administration: Each group of drug solutions was added into the 96-well plate, 100 μL per well, n=3 for each drug concentration. Meanwhile, negative wells (n=6) and blank wells (n=3) were set up. The 96-well plate was incubated in the incubator for further 6 days. CCK8 reagent was added to the 96-well plate, 20 μL per well, and then the plate was placed in the incubator for further 4 h. The absorbance of the solution was measured at a wavelength of 450 nm using an enzyme reader. The proliferation inhibition rate was calculated and the half inhibitory concentration IC50 value was calculated using Graphpad Prism 6.0 software.
With `Cn1nc(C2CCC(=O)NC2=O)c2cc(F)c(C3CCN(C[C@H]4CCCC[C@@H]4CN4CCN(c5ccc([C@@H]6c7ccc(O)cc7CC[C@@H]6c6ccccc6)cc5)CC4)CC3)cc21` (stereo partly drawn) [IV-10, 3-(5-fluoro-6-(1-(((1S,2S)-2-((4-(4-((1R,2S)-6-hydroxy-2-phenyl-1,2,3,4-tetrahydronaphthalen-1-yl)phenyl)piperazin-1-yl)methyl)cyclohexyl)methyl)piperidin-4-yl)-1-methyl-1H-indazol-3-yl)piperidin-2,6-dione], the IC50 is < 50 nM.

With `Cn1nc(N2CCC(=O)NC2=O)c2cc(F)c(C3CC4CCC(C3)N4C[C@@H]3CCCC[C@H]3CN3CCN(c4ccc([C@@H]5c6ccc(O)cc6CC[C@@H]5c5ccccc5)cc4)CC3)cc21` (stereo partly drawn) [VI-17], the half-maximal inhibitory concentration (IC50) is < 25 nM.

`Cc1nc2cc(N3CCN(C[C@@H]4CCCC[C@H]4CN4CCN(c5ccc([C@@H]6c7ccc(O)cc7CC[C@@H]6c6ccccc6)cc5)CC4)CC3)ccc2n1C1CCC(=O)NC1=O` (stereo partly drawn) [Compound V-1]: the concentration for half-maximal inhibition (IC50) was < 100 nM.

Regarding `O=C1CCC(NC(=O)c2ccc(N3CCN(C[C@@H]4CCCC[C@H]4CN4CCN(c5ccc([C@@H]6c7ccc(O)cc7CC[C@@H]6c6ccccc6)cc5)CC4)CC3)cc2F)C(=O)N1` (stereo partly drawn) [Compound I-69], the 50% inhibitory concentration (IC50) was < 25 nM.

As to `O=C1CCC(n2ncc3cc(N4CCN(C[C@@H]5CCCC[C@H]5CN5CCN(c6ccc([C@@H]7c8ccc(O)cc8CC[C@@H]7c7ccccc7)cc6)CC5)CC4)ccc32)C(=O)N1` (stereo partly drawn) [VI-6], the IC50 is < 100 nM.

Regarding `Cn1nc(N2CCC(=O)NC2=O)c2cc(F)c(C3(O)CCN(C[C@@H]4CCCC[C@H]4CN4CCN(c5ccc([C@@H]6c7ccc(O)cc7CC[C@@H]6c6ccccc6)cc5)CC4)CC3)cc21` [VI-23, 1-(5-fluoro-6-(4-hydroxy-1-(((1R, 2R)-2-((4-(4-((1R, 2S)-6-hydroxy-2-phenyl-1,2,3,4-tetrahydronaphthalen-1-yl)phenyl)piperazin-1-yl)methyl)cyclohexyl)methyl)piperidin-4-yl)-1-methyl-1H-indazol-3-yl)dihydropyrimidine-2,4 (1H, 3H)-dione], the half-maximal inhibitory concentration (IC50) is < 25 nM.

Consider `Cn1nc(N2CCC(=O)NC2=O)c2cc(F)c(N3CC4(CCN(C[C@@H]5CCCC[C@H]5CN5CCN(c6ccc([C@@H]7c8ccc(O)cc8CC[C@@H]7c7ccccc7)cc6)CC5)CC4)C3)cc21` [VI-27], for which the half-inhibitory concentration (IC50) was < 25 nM.

In the case of `Cn1c(=O)n(C2CCC(=O)NC2=O)c2cccc(N3CCN(C[C@@H]4CCCC[C@H]4CN4CCN(c5ccc([C@@H]6c7ccc(O)cc7CC[C@@H]6c6ccccc6)cc5)CC4)CC3)c21` (stereo partly drawn) [VII-1, 3-(4-(4-(((1R,2R)-2-((4-(4-((1R,2S)-6-hydroxy-2-phenyl-1,2,3,4-tetrahydronaphthalen-1-yl)phenyl)piperazin-1-yl)methyl)cyclohexyl)methyl)piperazin-1-yl)-3-methyl-2-oxo-2,3-dihydro-1H-benzo[d]imidazol-1-yl)piperidine-2,6-dione], the concentration for half-maximal inhibition (IC50) was < 50 nM.

Another experiment deals with MCF-7 tumor. The experiment can be described thus: In vivo tumor inhibitory activity test (MCF-7 tumor, estradiol-supplemented mice). The conditions noted are these: 5 mg/kg/d (I.V.), Day 19, relative tumor volume inhibition rate, P < 0.05. On the procedure: Experimental Example 3: In Vivo Tumor Inhibitory Activity Test
MCF-7 cell culture (culture conditions: MEM medium+20% FBS+1% essential amino acids ++1 mg/100 ml insulin, 37° C., 5% CO2). The cells subcultured into the logarithmic growth phase were collected and transferred into a centrifuge tube, and centrifuged at 800 rpm for 5 min. On the day of inoculation, the cell density was adjusted to 3*10^7 cells/mL. […]
Grouped administration: When the average tumor volume reached 80-150 mm^3, the animals were randomly grouped according to tumor volume, with the coefficient of variation (CV) of tumor volumes not exceeding ⅓ of the mean volume. […] The body weight of the mice was measured before administration, and the administration was based on the body weight on that day. Experimental observation and data collection: After cell inoculation, the effect of the tumor on the normal behavior of the animals was routinely monitored every week. […] After the start of administration, the mice were weighed and dosed daily, and tumor volume was measured twice a week. The tumor volume was calculated as follows: tumor volume (mm^3)=0.52×tumor long diameter (mm) x tumor short diameter (mm) 2. […]
[formula] […] All data were analyzed using GraphPad Prism 6.0.
For the compound `Cn1nc(N2CCC(=O)NC2=O)c2cc(F)c(C3(O)CCN(C[C@@H]4CCCC[C@H]4CN4CCN(c5ccc([C@@H]6c7ccc(O)cc7CC[C@@H]6c6ccccc6)cc5)CC4)CC3)cc21` [VI-23, 1-(5-fluoro-6-(4-hydroxy-1-(((1R, 2R)-2-((4-(4-((1R, 2S)-6-hydroxy-2-phenyl-1,2,3,4-tetrahydronaphthalen-1-yl)phenyl)piperazin-1-yl)methyl)cyclohexyl)methyl)piperidin-4-yl)-1-methyl-1H-indazol-3-yl)dihydropyrimidine-2,4 (1H, 3H)-dione], the “TGI (Day 19)” value was determined as 77.9%.
